In data set [1] the test system is Influenza A/H3N2 (strain A/HK/7/87). Put plainly: microbe, parasite or virus in culture. It counts as cell-based. Particulars: H3N2, MDCK, in Homo sapiens, 72 h.
A further data set concerns MDCK cells. Particulars: minimal changes in cell morphology by microscopy.
In data set [2] the test system is Influenza A/H3N2 (strain X-31). As to the kind of experiment: microbe, parasite or virus in culture. Format: cell-based. Particulars: H3N2, MDCK, in Homo sapiens, 72 h.
Another data set can be described thus: in vitro. Particulars: dog.
In data set [3] the test system is Human embryonic lung (HEL) fibroblasts.
For another data set, the system named is influenza virus. Format: cell-based, human influenza virus. Particulars: Ratio of MCC to average EC50, MDCK cells.
The subject of data set [4] is human cervix epithelial (HeLa) cells.
Data set [5] deals with African green monkey kidney (Vero) cells.
Where [6] appears, read: read-out: Antiviral EC50, Influenza A/H3N2 (strain A/HK/7/87), CPE.
Where [7] appears, read: read-out: Antiviral EC50, Influenza A/H3N2 (strain A/HK/7/87), MTS.
The mark [8] stands for this setting: read-out: Antiviral EC50, Influenza A/H3N2 (strain X-31), CPE.
Setting [9] is: read-out: Antiviral EC50, Influenza A/H3N2 (strain X-31), MTS.

Where two headings read alike, the source gives them in different places.

As to `NC(=O)c1ncn([C@@H]2O[C@H](CO)[C@@H](O)[C@H]2O)n1` [Ribavirin], the EC50 in data set [1] (setting [6]) was found to be 8 ± 2.2 µM; in data set [1] (setting [7]), 7.6 ± 3 µM; in data set [2] (setting [8]) it was 9 ± 0.04 µM; in data set [2] (setting [9]) it was 9.6 ± 2.2 µM. Moreover, the “Cytotoxicity MCC (minimum cytotoxic concentration)” value (“Cytotoxicity MCC” below) in the data set on MDCK cells was no less than 100 µM.
In the case of `CCC(CC)O[C@@H]1C=C(C(=O)O)C[C@H](N)[C@H]1NC(C)=O` [Oseltamivir carboxylate], the EC50 was found to be 0.26 ± 0.3 µM in data set [1] (setting [6]), 0.23 ± 0.23 µM in data set [1] (setting [7]), 0.027 ± 0.013 µM in data set [2] (setting [8]) and 0.064 ± 0.078 µM in data set [2] (setting [9]). For the same compound, the “Cytotoxicity MCC” value in the data set on MDCK cells was greater than 100 µM. The CC50 in the data set “in vitro” is greater than 100 µM.
Consider `COC(=O)[C@H]1NC(=O)[C@H]2NC(=O)[C@H](NC(=O)[C@@H]3NC(=O)[C@H]4NC(=O)[C@H](NC(=O)[C@H](N)c5ccc(O)c(c5)Oc5cc4cc(O)c5C)[C@H](O)c4ccc(cc4)Oc4cc3cc(c4O)Oc3ccc(cc3)[C@H]2O)c2ccc(O)c(c2)-c2c(O)cc(O)cc21` [Compound 2, aglycoristocetin], for which, in data set [3], the “Cytotoxic concentration MCC, HEL” value is no less than 100 µM. Further, the EC50 was 4.3 ± 2.9 µM in data set [1] (setting [6]), 3.2 ± 1.6 µM in data set [1] (setting [7]), 8.4 ± 2.4 µM in data set [2] (setting [8]) and 10.7 ± 2.5 µM in data set [2] (setting [9]). In addition, the Selectivity index in the data set on influenza virus stood at 15. In addition, the “Cytotoxicity MCC” value with MDCK cells stood at 100 µM. The “Cytotoxic concentration MCC, HeLa” value in data set [4] was no less than 100 µM. The compound further registered a CC50 in the data set “in vitro” of 44 ± 10 µM. Also, the “Cytotoxic concentration MCC, Vero” value in data set [5] came to 100 µM.
`NC12CC3CC(CC(C3)C1)C2` [Amantadine]: the EC50 was 3.9 ± 4.1 µM in data set [1] (setting [6]), 3.2 ± 4 µM in data set [1] (setting [7]), 54 ± 33 µM in data set [2] (setting [8]) and 45 ± 21 µM in data set [2] (setting [9]). Moreover, the “Cytotoxicity MCC” value with MDCK cells is greater than 100 µM. The compound further gave a CC50 in “in vitro” greater than 100 µM.
